Our source for the pH-dependent solubility and Solubility in water values is patent US20090311321A1, “ORAL DISINTEGRATING TABLET HAVING MASKED BITTER TASTE AND METHOD FOR PRODUCTION THEREOF” (KISSEI PHARMACEUTICAL CO., LTD., priority 2006, published 2009).

This data set can be described thus: Solubility of mitiglinide calcium hydrate (water, pH dependence). In kind it is physicochemical. An excerpt:
The inventors of the present invention conducted studies on orally disintegrating tablets containing mitiglinide calcium hydrate. […] Because the orally disintegrating tablets are designed to quickly disintegrate in the mouth, the influence of bitterness becomes a big factor when the active ingredient has a bitter taste. […] Under these circumstances, the inventors of the present invention conducted studies to provide a mitiglinide calcium hydrate-containing orally disintegrating tablet having reduced bitterness and capable of rapidly dissolving in the digestive tract.
As mentioned above, the mitiglinide calcium hydrate-containing preparation is administered immediately before meal, and preferably, rapidly dissolves upon administration to improve postprandial hyperglycemia. It is therefore desirable in an orally disintegrating tablet of the present invention that the tablet rapidly dissolves in the digestive tract, particularly in the stomach, after having disintegrated in the mouth. […] It is therefore preferable that an orally disintegrating tablet of the present invention rapidly dissolve in the stomach and water.

Consider `O=C(O)[C@H](CC(=O)N1C[C@H]2CCCC[C@H]2C1)Cc1ccccc1` [mitiglinide calcium hydrate, (+)-Monocalcium bis[(2S,3a,7a-cis)-α-benzylhexahydro-γ-oxo-2-isoindolinebutyrate]dihydrate], for which the pH-dependent solubility result (alkaline versus neutral to acidic pH) was “soluble in an alkaline pH range, and insoluble toward the neutral to acidic pH”. Further, where the note is “water”, the Solubility in water result is “does not easily dissolve in water”.
